This passage reports IC50 results from US10213407B2, “Compounds and methods for inhibiting production of trimethylamine” (The Procter & Gamble Company, priority 2015, dated 2019).

The subject of the test is Proteus mirabilis 29906 (Pm) lysate. The experiment in a line: Inhibition of formation of TMA from choline in Proteus mirabilis lysate (d9-choline to d9-TMA, LC-MS/MS). As to conditions: conversion of choline to TMA; Pm lysate 1.5 mg/mL protein, 50 μM d9-choline chloride, 37° C., two hours; read-out: TMA Inhibition (IC50, mol/L). The format is biochemical. On the procedure:
EXAMPLE 2 Assay for identifying and characterizing compounds that inhibit the formation of TMA from choline.
This example provides an exemplary assay for identifying and characterizing compounds that inhibit the formation of TMA from choline.
Proteus mirabilis 29906 (Pm) strain was grown aerobically overnight in 500 ml of Nutrient Broth media (3 g/L beef extract, 5 g/L Peptone; Difco #234000) at 37° C. with 250 rpm shaking. The biomass was pelleted by centrifugation at 6000×g for 12 minutes at 4° C. The cell pellet was suspended in 240 mL of ice-cold 1× Phosphate Buffered Saline (Ca^2+ and Mg^2+ free). Ninety micrograms of Lysozyme (Sigma #L6876 Lot #SLBG8654V; Sigma-Aldrich Corp., St. Louis, Mo.) was added and incubated with 320 rpm shaking for 30 minutes at 4° C. Lysis was achieved via French press with a 4° C. prechilled 1″ diameter chamber at 1000 psi (high ratio; internal PSI equivalent ˜16000). The lysate was centrifuged at 6,000×g for 12 minutes at 4° C. to pellet extra debris. A protein concentration of the centrifuged lysate supernatant was determined by a BCA Protein Assay Kit (Pierce #23225; Thermo Fisher Scientific Co., Waltham, Mass.) and protein concentration adjusted to 3 mg/ml with 1× Dulbecco's phosphate buffered saline (DPBS). The centrifuged supernatant lysate was aliquoted into 20 mL volumes and stored frozen at −80° C.
Proteus mirabilis 29906 (Pm) lysate was diluted to 1.5 mg/mL protein with 1×DPBS. Choline chloride (CC) (1M stock) was added to reach a final concentration of 2.5 mM choline chloride. The mixture was mixed using a vortex mixer for approximately 15 seconds and incubated at 37° C. for 22 hours. After incubation, 150 μL of CC-treated Pm lysate was dispensed into a deep-well plate (polypropylene, 2 mL volume, Corning Axygen catalogue #P-DW-20-C). Candidate IC50 compounds from TABLE 1 and vehicle control (respective vehicle control of DMSO or water), or control compounds (IC50 control, 8-Quinolinol hemisulfate salt (Sigma Catalog #55100)) were added at a 1:100 dilution (e.g., 1.5 μL per well). The plates were agitated on a plate shaker for 1 minute. d9-choline chloride (1.5 μL of 5 mM) was added to all wells to reach a final d9-choline chloride concentration of 50 μM.
The plates were again agitated on a plate shaker for 1 minute and incubated at 37° C. for two hours. After incubation, 1.5 μL of formic acid was added to each well (final concentration=1% formic acid). The plates were agitated on a plate shaker for 1 minute and placed on ice. Cell lysate samples were spiked with stable isotope labeled internal standard (22.5 μL of 6 μg/mL of 13C3-trimethylamine (13C3-TMA) was added to each sample), then d9-trimethylamine (d9-TMA), trimethylamine (TMA) and 13C3-TMA were isolated from the lysate after protein precipitation as described below. Acetonitrile acidified with 0.1% formic acid, 600 μL, was added to each sample which was then centrifuged (2,100 g for 20 minutes) to pellet the protein and other precipitates. The supernatant was removed and analyzed as described below. The TMA, d9-TMA and 13C3-TMA in the isolated supernatant samples were subjected to gradient High Performance Liquid Chromatography (HPLC) analysis on a Waters Atlantis HILIC Silica column, from Waters Corp., Milford, Mass., (2.1×50 mm, 3 μm particles) with an Atlantis Silica HILIC Sentry guard column, from Waters Corp., Milford, Mass., (100 Å, 3 μm, 2.1 mm×10 mm), 10 mM ammonium formate in water with 0.1% formic acid as mobile phase A and 0.1% formic acid in acetonitrile as mobile phase B. Detection and quantitation was achieved by tandem mass spectrometry operating under multiple reaction monitoring (MRM) MS/MS conditions (m/z 60.1→44.1 for TMA, m/z 69.1→49.1 for d9-TMA, m/z 63.0→46.1 for 13C3-TMA). TMA and d9-TMA calibration standards (STD), prepared in 80/20/0.1% acetonitrile/Water/Formic Acid, were used to construct a regression curve by plotting the response (peak area TMA/peak area 13C3-TMA) versus concentration for each standard. […]

For `CC[N+](CC)(CCCN=C=S)CCOc1ccccc1` [Compound 10, N-(2-Phenoxyethyl)-3-isothiocyanato-N,N-diethylpropan-1-aminium triflate], the IC50 was determined as 29.6 µM.

In the case of `C[N+](C)(CCN=C=S)CCOCc1ccccc1` [Compound 11, N-(2-Benzyloxyethyl)-2-isothiocyanato-N,N-dimethylethan-1-aminium triflate], the IC50 worked out at 16.1 µM.

`CC[N+](CC)(CCCN=C=S)CCOCc1ccccc1` [Compound 12, N-(2-Benzyloxyethyl)-3-isothiocyanato-N,N-diethylpropan-1-aminium triflate]: the IC50 is 29.1 µM.

In the case of `C[N+](C)(CCN=C=S)CCOc1ccccc1` [Compound 13, N-(2-Phenoxyethyl)-2-isothiocyanato-N,N-dimethylethan-1-aminium triflate], the IC50 was determined as 1.33 µM.

For `C[N+](C)(CCBr)CCN=C=S` [Compound 14, N-(2-Bromoethyl)-2-isothiocyanato-N,N-dimethylethan-1-aminium triflate], the IC50 was 24.9 µM.

Regarding `C[N+](C)(CCN=C=S)CC1CO1` (stereo not drawn) [Compound 15, N-(Oxiranylmethyl)-2-isothiocyanato-N,N-dimethylethan-1-aminium triflate], the IC50 is 194 µM.

As for `CC[N+](CC)(CCCN=C=S)CC1CO1` (stereo not drawn) [Compound 16, N-(Oxiranylmethyl)-3-isothiocyanato-N,N-diethylpropan-1-aminium triflate], the IC50 was 39.8 µM.

Turning to `COCC[N+](C)(C)CCN=C=S` [Compound 17, N-(2-Methoxyethyl)-2-isothiocyanato-N,N-dimethylethan-1-aminium triflate], the IC50 was 31.6 µM.

As for `CC[N+](CC)(CCCN=C=S)CCOC` [Compound 18, N-(2-Methoxyethyl)-3-isothiocyanato-N,N-diethylpropan-1-aminium triflate], the IC50 stood at 39.8 µM.

`CCOCC[N+](C)(C)CCN=C=S` [Compound 19, N-(2-Ethoxyethyl)-2-isothiocyanato-N,N-dimethylethan-1-aminium triflate]: the IC50 was 63.1 µM.

With `CCOCC[N+](CC)(CC)CCCN=C=S` [Compound 20, N-(2-Ethoxyethyl)-3-isothiocyanato-N,N-diethylpropan-1-aminium triflate], the IC50 worked out at 19.9 µM.

Regarding `COCCC[N+](C)(C)CCN=C=S` [Compound 21, N-(3-Methoxypropyl)-2-isothiocyanato-N,N-dimethylethan-1-aminium triflate], the IC50 stood at 31.6 µM.

As to `CC[N+](CC)(CCCN=C=S)CCCOC` [Compound 22], the IC50 is 31.6 µM.

On to `C[N+](C)(CCCl)CCN=C=S` [Compound 23, N-(2-Chloroethyl)-2-isothiocyanato-N,N-dimethylethan-1-aminium triflate], for which the IC50 was 25.1 µM.

Take `C[N+](C)(CCCCl)CCN=C=S` [Compound 24, N-(3-Chloropropyl)-2-isothiocyanato-N,N-dimethylethan-1-aminium triflate]: the IC50 was determined as 63.1 µM.

On to `CC[N+](CC)(CCCl)CCCN=C=S` [Compound 25, N-(2-Chloroethyl)-3-isothiocyanato-N,N-diethylpropan-1-aminium triflate], for which the IC50 was 19.9 µM.

For `CC[N+](CC)(CCCCl)CCCN=C=S` [Compound 26, N-(3-Chloropropyl)-3-isothiocyanato-N,N-diethylpropan-1-aminium triflate], the IC50 was 50.1 µM.

As to `CC[N+](CC)(CCF)CCCN=C=S` [Compound 27, N-(2-Fluoroethyl)-3-isothiocyanato-N,N-diethylpropan-1-aminium triflate], the IC50 is 31.6 µM.

Take `S=C=NCC[n+]1ccccc1` [Compound 28, 1-(2-Isothiocyanatoethyl)pyridin-1-ium bromide]: the IC50 worked out at 31.6 µM.

In the case of `Oc1ccc[n+](CCN=C=S)c1` [Compound 29, 1-(2-Isothiocyanatoethyl)-3-hydroxypyridinium bromide], the IC50 worked out at 1260 µM.

For the molecule `OCc1cccc[n+]1CCN=C=S` [Compound 30, 1-(2-Isothiocyanatoethyl)-(2-hydroxymethyl)pyridinium triflate], the IC50 is 25.1 µM.

`OCc1cccc[n+]1CCCN=C=S` [Compound 31, 2-(hydroxymethyl)-1-(3-isothiocyanatopropyl)pyridin-1-ium trifluoromethanesulfonate]: the IC50 came to 251 µM.

Consider `Oc1ccc[n+](CCCN=C=S)c1` [Compound 32, 3-hydroxy-1-(3-isothiocyanatopropyl)pyridin-1-ium trifluoromethanesulfonate], for which the IC50 turned out to be 1990 µM.

In the case of `OCC[N+]1(CCN=C=S)CCCCC1` [Compound 33, 1-(2-hydroxyethyl)-1-(2-isothiocyanatoethyl)piperidin-1-ium trifluoromethanesulfonate], the IC50 was 200 µM.

In the case of `C[N+]1(CCN=C=S)CCCCC1CO` (stereo not drawn) [Compound 34, 2-(hydroxymethyl)-1-(2-isothiocyanatoethyl)-1-methylpiperidin-1-ium trifluoromethanesulfonate], the IC50 is 316 µM.

In the case of `OCC[N+]1(CCCN=C=S)CCCCC1` [Compound 35, 1-(2-hydroxyethyl)-1-(3-isothiocyanatopropyl)piperidin-1-ium trifluoromethanesulfonate], the IC50 came to 1260 µM.

For the molecule `C[N+](C)(CCO)CCCN=C=S` [Compound 36, N-(2-hydroxyethyl)-3-isothiocyanato-N,N-dimethylpropan-1-aminium trifluoromethanesulfonate], the IC50 came to 100 µM.

`C#CC[N+](C)(C)CCN=C=S` [Compound 37, N-(2-isothiocyanatoethyl)-N,N-dimethylprop-2-yn-1-aminium bromide]: the IC50 was determined as 1.99 µM.

With `C=C(C[N+](C)(C)CCN=C=S)C(=O)OC` [Compound 38, N-(2-isothiocyanatoethyl)-2-(methoxycarbonyl)-N,N-dimethylprop-2-en-1-aminium bromide], the IC50 amounted to 14.1 µM.

Regarding `C[N+]1(CCN=C=S)CCC(O)CC1` (stereo not drawn) [Compound 39, 4-hydroxy-1-(2-isothiocyanatoethyl)-1-methylpiperidin-1-ium bromide], the IC50 worked out at 25.9 µM.

Turning to `C[N+]1(CCN=C=S)CCOCC1` [Compound 40, 4-Methyl-4-(2-isothiocyanatoethyl)morpholinium trifluoromethanesulfonate], the IC50 was found to be 286 µM.

Turning to `C[N+]1(CCN=C=S)CCCCC1` [Compound 41, 1-Methyl-1-(2-isothiocyanatoethyl)piperidium trifluoromethanesulfonate], the IC50 was determined as 31.7 µM.

For the molecule `S=C=NCC[N+]12CCC(CC1)CC2` [Compound 42, 1-(2-Isothiocyanatoethyl)quinuclidinium trifluoromethanesulfonate], the IC50 was determined as 12.1 µM.

`C[N+]1(CCCN=C=S)CCOCC1` [Compound 43, 4-Methyl-4-(3-isothiocyanatopropyl)morpholinium trifluoromethanesulfonate]: the IC50 was greater than 1000 µM.

For the molecule `C[N+]1(CCCN=C=S)CCCCC1` [Compound 44, 1-Methyl-1-(3-isothiocyanatopropyl)piperidinium trifluoromethanesulfonate], the IC50 was greater than 1000 µM.

For the molecule `S=C=NCCC[N+]12CCC(CC1)CC2` [Compound 45, 1-(3-Isothiocyanatopropyl)quinuclidinium trifluoromethanesulfonate], the IC50 was 115 µM.
